US11731986B2 (Sanford Burnham Prebys Medical Discovery Institute, priority 2017, dated 2023)

Target: T1, human LMPTP-A (Homo sapiens, UniProt P24666)
T1 sequence (P24666 1-158): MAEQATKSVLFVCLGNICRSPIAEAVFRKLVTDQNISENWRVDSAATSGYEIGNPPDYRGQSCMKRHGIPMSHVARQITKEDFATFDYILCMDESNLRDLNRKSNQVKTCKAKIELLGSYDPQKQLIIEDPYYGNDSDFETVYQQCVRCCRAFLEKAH
Assay: Enzyme Assay of Inhibition of LMPTP-A (phosphatase assay, OMFP or pNPP substrate)
Format: biochemical
Conditions: Bis-Tris pH 6.0, 37° C.
How it was run: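 Buffer 50 mM Bis-Tris pH 6.0, 1 mM DTT, 0.01% Triton X-100, 37 °C; OMFP read continuously (485/525 nm) or pNPP stopped with NaOH, 405 nm. IC50 from concentration vs % activity. Selectivity: 40 μM compound with 0.4 mM OMFP or 5 mM pNPP; reversibility: 50 nM enzyme, 10 μM compound, 5 min, 100× dilution.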

Row | Structure (SMILES) | IC50 [nM]
1 | CN1CCC(NC(=O)COc2ccc(-c3cc(NCCCN4CCCCC4)c4cnccc4n3)cc2)CC1 [N-(1-methylpiperidin-4-yl)-2-(4-(4-(3-(piperidin-1-yl)propylamino)-1,6-naphthyridin-2-yl)phenoxy)acetamide] | ≥ 20000
2 | CN1CCC(NC(=O)COCc2ccc(-c3cc(NCCCN4CCCCC4)c4cnccc4n3)cc2)CC1 [N-(1-methylpiperidin-4-yl)-2-((4-(4-((3-(piperidin-1-yl)propyl)amino)-1,6-naphthyridin-2-yl)benzyl)oxy)acetamide] | ≤ 1000
3 | CN1CCC(NC(=O)CCOc2ccc(-c3cc(NCCCN4CCCCC4)c4cnccc4n3)cc2)CC1 [N-(1-methylpiperidin-4-yl)-3-(4-(4-((3-(piperidin-1-yl)propyl)amino)-1,6-naphthyridin-2-yl)phenoxy)propanamide] | ≥ 20000
4 | CN1CCC(NC(=O)c2ccc(-c3cc(NCCCN4CCCCC4)c4cnccc4n3)cn2)CC1 [N-(1-methylpiperidin-4-yl)-5-(4-((3-(piperidin-1-yl)propyl)amino)-1,6-naphthyridin-2-yl)picolinamide] | 1000 to 20000
5 | CN1CCC(NC(=O)c2cc3ccc(-c4cc(NCCCN5CCCCC5)c5cnccc5n4)cc3s2)CC1 [N-(1-methylpiperidin-4-yl)-6-(4-(3-(piperidin-1-yl)propylamino)-1,6-naphthyridin-2-yl)benzo[b]thiophene-2-carboxamide] | ≤ 1000
6 | CN1CCC(CCNC(=O)CCc2ccc(-c3cc(NCCCN4CCCCC4)c4cnccc4n3)cc2)CC1 [N-(2-(1-Methylpiperidin-4-yl)ethyl)-3-(4-(4-(3-(piperidin-1-yl)propylamino)-1,6-naphthyridin-2-yl)phenyl)propanamide] | ≤ 1000
7 | CN1CCC(CCNC(=O)COCc2ccc(-c3cc(NCCCN4CCCCC4)c4cnccc4n3)cc2)CC1 [N-(2-(1-methylpiperidin-4-yl)ethyl)-2-(4-(4-(3-(piperidin-1-yl)propylamino)-1,6-naphthyridin-2-yl)benzyloxy)acetamide] | ≤ 1000
8 | CN1CCC(CCNC(=O)C#Cc2ccc(-c3cc(NCCCN4CCCCC4)c4cnccc4n3)cc2)CC1 [N-(2-(1-methylpiperidin-4-yl)ethyl)-3-(4-(4-((3-(piperidin-1-yl)propyl)amino)-1,6-naphthyridin-2-yl)phenyl)propiolamide] | 1000 to 20000
9 | CN1CCCN(CCNC(=O)CCc2ccc(-c3cc(NCCCN4CCCCC4)c4cnccc4n3)cc2)CC1 [N-(2-(4-Methyl-1,4-diazepan-1-yl)ethyl)-3-(4-(4-(3-(piperidin-1-yl)propylamino)-1,6-naphthyridin-2-yl)phenyl)propanamide] | ≤ 1000
10 | CN1CCCN(CCNC(=O)COCc2ccc(-c3cc(NCCCN4CCCCC4)c4cnccc4n3)cc2)CC1 [N-(2-(4-methyl-1,4-diazepan-1-yl)ethyl)-2-(4-(4-(3-(piperidin-1-yl)propylamino)-1,6-naphthyridin-2-yl)benzyloxy)acetamide] | ≤ 1000
11 | CN(C)CCNC(=O)c1cc2ccc(-c3cc(NCCCN4CCCCC4)c4cnccc4n3)cc2[nH]1 [N-(2-(Dimethylamino)ethyl)-6-(4-(3-(piperidin-1-yl)propylamino)-1,6-naphthyridin-2-yl)-1H-indole-2-carboxamide] | 1000 to 20000
12 | CN(C)CCNC(=O)c1cc2cc(-c3cc(NCCCN4CCCCC4)c4cnccc4n3)ccc2n1C [N-(2-(dimethylamino)ethyl)-1-methyl-5-(4-((3-(piperidin-1-yl)propyl)amino)-1,6-naphthyridin-2-yl)-1H-indole-2-carboxamide] | ≤ 1000
13 | CN(C)CCNC(=O)c1ccc(-c2cc(NCCCN3CCCCC3)c3cnccc3n2)cc1 [N-(2-(dimethylamino)ethyl)-4-(4-((3-(piperidin-1-yl)propyl)amino)-1,6-naphthyridin-2-yl)benzamide] | ≤ 1000
14 | CN(C)CCNC(=O)c1nc2cc(-c3cc(NCCCN4CCCCC4)c4cnccc4n3)ccc2[nH]1 [N-(2-(dimethylamino)ethyl)-5-(4-(3-(piperidin-1-yl)propylamino)-1,6-naphthyridin-2-yl)-1H-benzo[d]imidazole-2-carboxamide] | ≤ 1000
15 | CN(C)CCNC(=O)c1nc2cc(-c3cc(Nc4ccc(CN5CCCC5)cc4)c4cnccc4n3)ccc2[nH]1 [N-(2-(dimethylamino)ethyl)-5-(4-((4-(pyrrolidin-1-ylmethyl)phenyl)amino)-1,6-naphthyridin-2-yl)-1H-benzo[d]imidazole-2-carboxamide] | ≤ 1000
16 | CN(C)CCNC(=O)c1cc2ccc(-c3cc(NCCCN4CCCCC4)c4cnccc4n3)cc2s1 [N-(2-(dimethylamino)ethyl)-6-(4-(3-(piperidin-1-yl)propylamino)-1,6-naphthyridin-2-yl)benzo[b]thiophene-2-carboxamide] | 1000 to 20000
17 | CN1CCN(CCCNC(=O)c2nc3cc(-c4cc(NCCCN5CCCCC5)c5cnccc5n4)ccc3[nH]2)CC1 [N-(3-(4-methylpiperazin-1-yl)propyl)-5-(4-((3-(piperidin-1-yl)propyl)amino)-1,6-naphthyridin-2-yl)-1H-benzo[d]imidazole-2-carboxamide] | ≤ 1000
18 | CN1CCN(CCCNC(=O)c2nc3cc(-c4cc(Nc5ccc(CN6CCCC6)cc5)c5cnccc5n4)ccc3[nH]2)CC1 [N-(3-(4-methylpiperazin-1-yl)propyl)-5-(4-((4-(pyrrolidin-1-ylmethyl)phenyl)amino)-1,6-naphthyridin-2-yl)-1H-benzo[d]imidazole-2-carboxamide] | ≥ 20000

Next, values leading:

Row | IC50 [nM] | Structure (SMILES)
19 | 1000 to 20000 | O=C(NCCCN1CCCCC1)c1ccc(-c2cc(NCc3ccncc3)c3cnccc3n2)cc1 [N-(3-(Piperidin-1-yl)propyl)-4-(4-((pyridin-4-ylmethyl)amino)-1,6-naphthyridin-2-yl)benzamide]
20 | 1000 to 20000 | O=C(NCCCN1CCCCC1)c1ccc(-c2cc(NC3CCOCC3)c3cnccc3n2)cc1 [N-(3-(Piperidin-1-yl)propyl)-4-(4-((tetrahydro-2H-pyran-4-yl)amino)-1,6-naphthyridin-2-yl)benzamide]
21 | 1000 to 20000 | O=C(NCCCN1CCCCC1)c1ccc(-c2cc(NC3CCNCC3)c3cnccc3n2)cc1 [N-(3-(Piperidin-1-yl)propyl)-4-(4-(piperidin-4-ylamino)-1,6-naphthyridin-2-yl)benzamide]
22 | 1000 to 20000 | O=C(NCCCN1CCCCC1)c1ccc(-c2cc(NC3CCNC3)c3cnccc3n2)cc1 (stereo not drawn) [N-(3-(Piperidin-1-yl)propyl)-4-(4-(pyrrolidin-3-ylamino)-1,6-naphthyridin-2-yl)benzamide]
23 | 1000 to 20000 | O=C(NCCCN1CCCCC1)c1cc2ccc(-c3cc(NCCCN4CCCCC4)c4cnccc4n3)cc2[nH]1 [N-(3-(Piperidin-1-yl)propyl)-6-(4-(3-(piperidin-1-yl)propylamino)-1,6-naphthyridin-2-yl)-1H-indole-2-carboxamide]
24 | 1000 to 20000 | O=C(COCc1ccc(-c2cc(NCCCN3CCCCC3)c3cnccc3n2)cc1)NCCCN1CCCCC1 [N-(3-(piperidin-1-yl)propyl)-2-((4-(4-((3-(piperidin-1-yl)propyl)amino)-1,6-naphthyridin-2-yl)benzyl)oxy)acetamide]
25 | 1000 to 20000 | O=C(NCCCN1CCCCC1)c1cc2cc(-c3cc(NCCCN4CCCCC4)c4cnccc4n3)ccc2s1 [N-(3-(piperidin-1-yl)propyl)-5-(4-(3-(piperidin-1-yl)propylamino)-1,6-naphthyridin-2-yl)benzo[b]thiophene-2-carboxamide]
26 | ≤ 1000 | O=C(NCCCN1CCCCC1)c1nc2cc(-c3cc(NCCCN4CCCCC4)c4cnccc4n3)ccc2[nH]1 [N-(3-(piperidin-1-yl)propyl)-5-(4-((3-(piperidin-1-yl)propyl)amino)-1,6-naphthyridin-2-yl)-1H-benzo[d]imidazole-2-carboxamide]
27 | ≥ 20000 | O=C(NCCCN1CCCCC1)c1ccc(-c2cc(NCCCN3CCCCC3)c3cnccc3n2)cn1 [N-(3-(piperidin-1-yl)propyl)-5-(4-((3-(piperidin-1-yl)propyl)amino)-1,6-naphthyridin-2-yl)picolinamide]
28 | ≤ 1000 | O=C(NCCCN1CCCCC1)c1nc2cc(-c3cc(Nc4ccc(CN5CCCC5)cc4)c4cnccc4n3)ccc2[nH]1 [N-(3-(piperidin-1-yl)propyl)-5-(4-((4-(pyrrolidin-1-ylmethyl)phenyl)amino)-1,6-naphthyridin-2-yl)-1H-benzo[d]imidazole-2-carboxamide]
29 | ≤ 1000 | O=C(NCCCN1CCCCC1)c1cc2ccc(-c3cc(NCCCN4CCCCC4)c4cnccc4n3)cc2s1 [N-(3-(piperidin-1-yl)propyl)-6-(4-(3-(piperidin-1-yl)propylamino)-1,6-naphthyridin-2-yl)benzo[b]thiophene-2-carboxamide]
30 | ≤ 1000 | CN1CCC(CNC(=O)CCc2ccc(-c3cc(NCCCN4CCCCC4)c4cnccc4n3)cc2)CC1 [N-((1-Methylpiperidin-4-yl)methyl)-3-(4-(4-(3-(piperidin-1-yl)propylamino)-1,6-naphthyridin-2-yl)phenyl)propanamide]
31 | 1000 to 20000 | CCN1CCC(CNC(=O)COCc2ccc(-c3cc(NCCCN4CCCCC4)c4cnccc4n3)cc2)CC1 [N-((1-ethylpiperidin-4-yl)methyl)-2-(4-(4-(3-(piperidin-1-yl)propylamino)-1,6-naphthyridin-2-yl)benzyloxy)acetamide]
32 | ≥ 20000 | CCN1CCC(CNC(=O)CCOc2ccc(-c3cc(NCCCN4CCCCC4)c4cnccc4n3)cc2)CC1 [N-((1-ethylpiperidin-4-yl)methyl)-3-(4-(4-((3-(piperidin-1-yl)propyl)amino)-1,6-naphthyridin-2-yl)phenoxy)propanamide]
33 | ≤ 1000 | CN1CCC(CNC(=O)COCc2ccc(-c3cc(NCCCN4CCCCC4)c4cnccc4n3)cc2)CC1 [N-((1-methylpiperidin-4-yl)methyl)-2-(4-(4-(3-(piperidin-1-yl)propylamino)-1,6-naphthyridin-2-yl)benzyloxy)acetamide]
